Like-named read-outs stand apart in the source and are kept apart here.
Assays:
[1] = human, ref Schulz et al.[56], cited from earlier work; for Therapeutic "normal" blood-plasma/serum concentration: converted from µg/mL
[2] = cited from earlier work; for whole fish concentration, salmon: ref Meador et al. 18
[3] = parameters: method as in US EPA Chemistry Dashboard; settings: ref US EPA Chemistry Dashboard; cited from earlier work
[4] = ref Meador et al. 18; cited from earlier work
[5] = for plasma concentration, CPM-C 01: Cootes carp 01, 2011, male
Protocol: (§1) Plasma from 9 individual male fish (500 µL/individual) was pooled to yield 3 samples for PPCP analysis. […] Plasma from 6 individual carp (2.3–3.5 g) from each location was selected for PPCP analysis. […] Plasma samples were frozen (−80 °C) until analysis.
(§2) A total of 20 fish plasma samples from the pooled caged fish (7) and the wild fish (13) along with 12 water samples were selected for analysis. […] A full list of analytes is provided in Supplementary Information. Mass labelled^13C-, or deuterated surrogate internal standards were used for quantification of all analytes via the isotope dilution/surrogate standard quantitation method. Prior to extraction and/or clean-up procedures, aqueous samples were adjusted to pH 2.0, spiked with extraction surrogate standards, then adjusted to pH 4 using tetrasodium ethylenediamine-tetraacetate dihydrate. Plasma samples (2.3–2.5 g) were spiked with extraction surrogate standards, sonicated with 20 mL acetonitrile, then diluted with ultra-pure water to 200 mL. The extracts were cleaned up by solid phase extraction using Oasis HLB cartridges (Waters Ltd. Mississauga ON), filtered, and analyzed by liquid chromatography-electrospray ionization-tandem mass spectrometry (LC/ESI-MS/MS) in positive or negative ionization mode. The analysis of the complete list of analytes (SI Table S1) required a total of five instrumental runs.
(§3) Quality assurance steps included analysis of lab blanks for water and plasma along with matrix recovery spikes. […] Detection limits (DLs) were defined as lowest calibration level adjusted to the maximal sample size or 3 times the signal of the noise in the target channel converted to an equivalent sample, whichever was greater. […] Where analytes were detected in two or more samples of the same species or series of water samples, non-detect values were converted to ½ the DL value for reporting purposes.

[6] = Protocol: as §1, §2
in vivo = settings: goldfish (Carassius auratus), in vivo
Description: Cages were visited weekly, and fish (13/cage) were fed during the visits (20 g/cage). All animal experiments were in accordance with CCAC guidance and approved by the GLLFAS-WSTD Animal Care Committee (Government of Canada). Further details on the caging and preparation of the fish and animal care protocols are provided in Simmons et al.[32]. […] A fourth site, Jordan Harbour (JH), a widening of 20 Mile Creek adjacent to Lake Ontario near Jordan ON, served as a reference site. Mass and fork length were measured and recorded. Plasma collection and storage is described in the SI. Plasma of caged goldfish was divided for proteome, metabolome and PPCP analysis. Due to limited volumes, pooled samples of plasma from 25 individual fish (50 µL/individual) was pooled to yield one sample from at each location for PPCP analysis.
as §2, §3

[7] = Plasma bioaccumulation factor (BAFP), goldfish; type: in vivo, goldfish (Carassius auratus)
Protocol: Bioaccumulation factor (BAFP) was calculated as concentration in fish plasma (ng/g × 1000) divided by concentration in water (ng/L). Two widely used modeling approaches for predicting organic contaminant bioaccumulation were assessed: the BCF-BAF model for whole body BAFs[53] and the fish-plasma concentration calculation of Huggett et al.[35] modified by Berninger et al.[54]. The latter involves estimating an octanol-water partition coefficient (Kow) adjusted for fraction ionized (log D), using the pKa value to adjust log Kow[54] taking into account the pH of CPM waters. Further information on the calculation of log D, blood-water partitioning (PBW), and plasma concentrations (FPC) is given in the SI.

[8] = female, carp (Cyprinus carpio), in vivo
[9] = male, carp (Cyprinus carpio), in vivo
[10] = male, goldfish (Carassius auratus), in vivo
[11] = plasma concentration, CPM1 caged
[12] = plasma concentration, CPM2 caged
[13] = plasma concentration, CPM3 caged
[14] = Cootes carp 2, Sep 27, 2011, male, wet weight
[15] = Cootes carp 10, Sep 28, 2011, female, wet weight
[16] = Cootes carp 13, Sep 28, 2011, female, wet weight
[17] = Cootes carp 20, 2011, male, wet weight
[18] = Cootes carp 36, Oct 3, 2011, female, wet weight
[19] = Jordan Harbour brown bullhead, wet weight
[20] = Jordan Harbour carp 75, Nov 7, 2011, female, wet weight

Compound	Therapeutic "normal" blood-plasma/serum concentration [1] [ng/mL]	whole fish concentration, salmon [2]	log Kow [3]	whole fish concentration, sculpin [4]	plasma concentration, CPM wild-01 [5, 10] [ng/g]	plasma concentration, CPM wild-02 [5, 10] [ng/g]	plasma concentration, CPM wild-03 [5, 10] [ng/g]	concentration at 21 days (in vivo; [11]) [ng/g]	concentration at 21 days (in vivo; [12]) [ng/g]	concentration at 21 days (in vivo; [13]) [ng/g]	concentration at 21 days (in vivo; plasma concentration, JH caged) [ng/g]	plasma concentration, CPM-C 01 ([5]; wet weight) [ng/g]	plasma concentration, CPM-C 2 [5, 14] [ng/g]	plasma concentration, CPM-C 10 [5, 15] [ng/g]	plasma concentration, CPM-C 13 [5, 16] [ng/g]	plasma concentration, CPM-C 20 [5, 17] [ng/g]	plasma concentration, CPM-C 36 [5, 18] [ng/g]	Carp plasma concentration, this study (range) ([5]; Table S7) [ng/g]	plasma concentration, JH-BB [6, 19] [ng/g]	plasma concentration, JH-C 75 [5, 20] [ng/g]	other results
CN1[C@@H]2CC[C@H]1C[C@@H](OC(c1ccccc1)c1ccccc1)C2 [Benztropine]	10 to 180	0.2 ng/g wet weight or ng/mL for plasma	3.85	< mdl	–	–	–	–	–	–	–	–	–	–	–	–	–	–	–	–	toxic dose (toxic blood-plasma/serum concentration) [1]: 50 ng/mL; Salmon (whole body) concentration ([2]; Table S7, ref Meador et al. (2016)): 0.2 ng/g
C[C@]12CCC(=O)C=C1CC[C@@H]1[C@@H]2[C@@H](O)C[C@@]2(C)[C@H]1CC[C@]2(O)C(=O)CO [Hydrocortisone]	–	–	–	–	129	134	118	100	107	113	92.4	–	–	–	–	–	–	–	–	–	plasma concentration, CPM-C 10 [5, 8]: 764 ng/g; plasma concentration, CPM-C 13 [5, 8]: 1010 ng/g; plasma concentration, CPM-C 36 [5, 8]: 875 ng/g; plasma concentration, JH-C 73 [5, 8]: 456 ng/g; plasma concentration, JH-C 75 [5, 8]: 1440 ng/g; plasma concentration, CPM-C 2 [5, 9]: 1010 ng/g; plasma concentration, CPM-C 20 [5, 9]: 210 ng/g; plasma concentration, JH-C 54 [5, 9]: 232 ng/g; plasma concentration, JH-C 74 [5, 9]: 242 ng/g; plasma concentration, JH-C 78 [5, 9]: 522 ng/g; plasma concentration, JH-BB ([6]; Brown Bullhead (Ameiurus nebulosus), in vivo): 187 ng/g
CN(C)CCCC1(c2ccc(F)cc2)OCc2cc(C#N)ccc21 (centres unmarked) [Citalopram]	50 to 110	–	3.74	–	0.0392	0.127	0.13	0.145	0.163	0.041	< 0.08	–	–	–	–	–	–	–	–	–	plasma concentration, carp, this study (mean) ([5]; in vivo): < mdl; plasma concentration, goldfish, this study (mean) [5, 10]: 0.10 ng/g wet weight or ng/mL for plasma; wild goldfish plasma, range of concentrations [5, 10]: 0.04 to 0.16 ng/g; concentration at 21 days (in vivo; caged goldfish plasma, range of concentrations): 0.04 to 0.13 ng/g; BAFP, CPM1 goldfish caged ([7]; CPM1): 4 L/kg; BAFP, CPM2 goldfish caged ([7]; CPM2, water sample of August 2012): 6 L/kg; BAFP, CPM3 goldfish caged ([7]; CPM3): 52 L/kg; BAFP at CPM3, wild goldfish, average ([7]; conc in fish plasma/conc in water): 44 L/kg; BAFP at CPM3, wild goldfish, range ([7]; range based on range of plasma concentrations): 18 to 58 L/kg
NCCC(Oc1ccc(C(F)(F)F)cc1)c1ccccc1 (centres unmarked) [Norfluoxetine]	–	–	–	–	–	–	–	–	–	–	–	0.338	0.216	0.227	0.234	0.179	0.215	0.18 to 0.34	< 0.57	–	Goldfish plasma concentration, this study (range) ([5]; Table S7): 0.17 to 1.1 ng/g; plasma concentration, CPM wild-01 ([5]; wild goldfish sample 01, 2012, wet weight): 0.300 ng/g; plasma concentration, CPM wild-02 ([5]; wild goldfish sample 02, 2012, wet weight): 0.654 ng/g; plasma concentration, CPM wild-03 ([5]; wild goldfish sample 03, 2012, wet weight): 1.1 ng/g; concentration at 21 days (in vivo; plasma concentration, CPM1 caged, CPM1, 07-2014, pooled plasma, wet weight): 0.879 ng/g; concentration at 21 days (in vivo; plasma concentration, CPM2 caged, CPM2, 07-2014, pooled plasma, wet weight): 0.58 ng/g; concentration at 21 days (in vivo; plasma concentration, CPM3 caged, CPM3, 07-2014, pooled plasma, wet weight): 0.168 ng/g; concentration at 21 days (in vivo; plasma concentration, JH caged, Jordan Harbour reference site, 07-2014, pooled plasma, wet weight): < 0.413 ng/g
CC(C(=O)O)c1ccc(CC(C)(C)O)cc1 (centres unmarked) [2-Hydroxy-ibuprofen]	–	–	–	–	–	–	–	–	–	–	–	< 16.9	< 23	< 24.2	< 24.9	< 17.2	< 22.9	–	< 30.4	< 24.1	plasma concentration, JH-C 54 ([5]; Jordan Harbour carp 54, Nov 7, 2011, male, wet weight): < 16.9 ng/g; plasma concentration, JH-C 73 ([5]; Jordan Harbour carp 73, Nov 7, 2011, female, wet weight): < 16.5 ng/g; plasma concentration, JH-C 74 ([5]; Jordan Harbour carp 74, Nov 7, 2011, male, wet weight): < 17 ng/g; plasma concentration, JH-C 78 ([5]; Jordan Harbour carp 78, Nov 7, 2011, male, wet weight): < 38.5 ng/g; plasma concentration, JH-C 82 ([5]; Jordan Harbour carp 82, Nov 7, 2011, female, wet weight): 17 ng/g
CCCCC(=O)N(Cc1ccc(-c2ccccc2-c2nnn[nH]2)cc1)[C@H](C(=O)O)C(C)C [Valsartan]	~800 to 6000	< mdl	3.07	< mdl	–	–	–	–	–	–	–	0.422	1.23	0.605	0.625	0.431	0.570	0.42 to 1.23	–	< 1.2	Cootes carp plasma, range of concentrations ([5]; Cootes Paradise Marsh, range): 0.42 to 1.23 ng/g; plasma concentration, carp, this study (mean) ([5]; Table S8): 0.65 ng/g wet weight or ng/mL for plasma; plasma concentration, goldfish, this study (mean) ([5]; Table S8): < mdl
